Species: Rattus norvegicus
Experiment: Open TG-GATES - Regimen: Daily Repeat
Assay type: toxicity, organism-based, Sprague-Dawley
Set-up: regimen Daily Repeat, gender Male, age 6 weeks
Details: in vivo, po, 1000 mg/kg, route gavage, dose level High; for APTT / Bas / Eos / Fbg / Hb / Ht / Lym / MCH / MCHC / MCV / Mono / Neu / PT / Plat / RBC / Ret / WBC: tissue Blood; for KIDNEY_L / KIDNEY_R / KIDNEY_TOTAL: tissue Kidney; for LIVER: tissue Liver; for A/G / ALP / ALT / AST / BUN / CRE / Ca / Cl / DBIL / GLC / IP / K / LDH / Na / PL / RALB / TBIL / TC / TG / TP / gamma-GTP: tissue Plasma

With `CC(S)C(=O)NCC(=O)O` (configuration not stated) [TIOPRONIN] the TERMINAL_BW (72 h, time 3 day) was 223.7 g, the APTT (72 h, time 3 day) was 23.7 s and the Bas (72 h, time 3 day) was 0%. It also gave an Eos (72 h, time 3 day) of 1.2%, a Fbg (72 h, time 3 day) of 288 mg/dL and a Hb (72 h, time 3 day) of 13 g/dL. The Ht (72 h, time 3 day) was 39.2%, the Lym (72 h, time 3 day) was 73.8% and the MCH (72 h, time 3 day) was 20.8 pg. For the same compound, the MCHC (72 h, time 3 day) was 33.2%, the MCV (72 h, time 3 day) was 62.7 fL and the Mono (72 h, time 3 day) was 3.6%. For the same compound, the Neu (72 h, time 3 day) was 20.8%, the PT (72 h, time 3 day) was 15.8 s and the Plat (72 h, time 3 day) was 113.1 x10_4/uL. It also gave an RBC (72 h, time 3 day) of 626.6 x10_4/ul, a Ret (72 h, time 3 day) of 6.9% and a WBC (72 h, time 3 day) of 105.8 x10_2/uL. It also gave a KIDNEY_L (72 h, time 3 day) of 1 g, a KIDNEY_R (72 h, time 3 day) of 1 g and a KIDNEY_TOTAL (72 h, time 3 day) of 2 g. The LIVER (72 h, time 3 day) was 10.7 g, the A/G (72 h, time 3 day) was 1.3 and the ALP (72 h, time 3 day) was 1581.6 IU/L. It also gave an ALT (72 h, time 3 day) of 49.2 IU/L, an AST (72 h, time 3 day) of 77.2 IU/L and a BUN (72 h, time 3 day) of 15.2 mg/dL. The CRE (72 h, time 3 day) was 0.2 mg/dL, the Ca (72 h, time 3 day) was 10.7 mg/dL and the Cl (72 h, time 3 day) was 105.8 meq/L. The DBIL (72 h, time 3 day) was 0.002 mg/dL, the GLC (72 h, time 3 day) was 186.2 mg/dL and the IP (72 h, time 3 day) was 7.8 mg/dL. The K (72 h, time 3 day) was 4.4 meq/L, the LDH (72 h, time 3 day) was 173.4 IU/L and the Na (72 h, time 3 day) was 140.8 meq/L. The PL (72 h, time 3 day) was 131 mg/dL, the RALB (72 h, time 3 day) was 2.9 g/dL and the TBIL (72 h, time 3 day) was 0.014 mg/dL. For the same compound, the TC (72 h, time 3 day) was 68.6 mg/dL, the TG (72 h, time 3 day) was 83.4 mg/dL and the TP (72 h, time 3 day) was 5.2 g/dL. For the same compound, the gamma-GTP (72 h, time 3 day) was 1.8 IU/L, the TERMINAL_BW ([…], time 7 day) was 254.3 g and the TERMINAL_BW ([…], time 14 day) was 296.9 g. It also gave a TERMINAL_BW ([…], time 28 day) of 364.7 g, an APTT ([…], time 7 day) of 21.9 s and a Bas ([…], time 7 day) of 0%. The Eos ([…], time 7 day) was 1%, the Fbg ([…], time 7 day) was 297 mg/dL and the Hb ([…], time 7 day) was 13.4 g/dL. It also gave a Ht ([…], time 7 day) of 39.6%, a Lym ([…], time 7 day) of 77% and an MCH ([…], time 7 day) of 21.4 pg. For the same compound, the MCHC ([…], time 7 day) was 33.8%, the MCV ([…], time 7 day) was 63.3 fL and the Mono ([…], time 7 day) was 2.6%. For the same compound, the Neu ([…], time 7 day) was 18.8%, the PT ([…], time 7 day) was 15.4 s and the Plat ([…], time 7 day) was 122.7 x10_4/uL. It also gave an RBC ([…], time 7 day) of 626 x10_4/ul, a Ret ([…], time 7 day) of 6.8% and a WBC ([…], time 7 day) of 115.2 x10_2/uL. It also gave an APTT ([…], time 14 day) of 24.7 s, a Bas ([…], time 14 day) of 0% and an Eos ([…], time 14 day) of 0.8%. The Fbg ([…], time 14 day) was 266.2 mg/dL, the Hb ([…], time 14 day) was 13.9 g/dL and the Ht ([…], time 14 day) was 41.1%. It also gave a Lym ([…], time 14 day) of 81.2%, an MCH ([…], time 14 day) of 20.8 pg and an MCHC ([…], time 14 day) of 33.7%. It also gave an MCV ([…], time 14 day) of 61.7 fL, a Mono ([…], time 14 day) of 2.4% and a Neu ([…], time 14 day) of 14.4%. It also gave a PT ([…], time 14 day) of 15.9 s, a Plat ([…], time 14 day) of 124 x10_4/uL and an RBC ([…], time 14 day) of 666.8 x10_4/ul. The Ret ([…], time 14 day) was 5.2%, the WBC ([…], time 14 day) was 129.5 x10_2/uL and the APTT ([…], time 28 day) was 24.2 s. The Bas ([…], time 28 day) was 0%, the Eos ([…], time 28 day) was 1.2% and the Fbg ([…], time 28 day) was 300.8 mg/dL. It also gave a Hb ([…], time 28 day) of 15 g/dL, a Ht ([…], time 28 day) of 42.6% and a Lym ([…], time 28 day) of 79%. For the same compound, the MCH ([…], time 28 day) was 19.2 pg, the MCHC ([…], time 28 day) was 35.3% and the MCV ([…], time 28 day) was 54.5 fL. The Mono ([…], time 28 day) was 1.8%, the Neu ([…], time 28 day) was 16.2% and the PT ([…], time 28 day) was 16.1 s. It also gave a Plat ([…], time 28 day) of 98.3 x10_4/uL, an RBC ([…], time 28 day) of 781.4 x10_4/ul and a Ret ([…], time 28 day) of 3.1%. It also gave a WBC ([…], time 28 day) of 124 x10_2/uL, a KIDNEY_L ([…], time 7 day) of 1.1 g and a KIDNEY_R ([…], time 7 day) of 1.2 g. For the same compound, the KIDNEY_TOTAL ([…], time 7 day) was 2.3 g, the KIDNEY_L ([…], time 14 day) was 1.3 g and the KIDNEY_R ([…], time 14 day) was 1.3 g. The KIDNEY_TOTAL ([…], time 14 day) was 2.6 g, the KIDNEY_L ([…], time 28 day) was 1.5 g and the KIDNEY_R ([…], time 28 day) was 1.5 g. For the same compound, the KIDNEY_TOTAL ([…], time 28 day) was 3 g, the LIVER ([…], time 7 day) was 12.3 g and the LIVER ([…], time 14 day) was 13.3 g. The LIVER ([…], time 28 day) was 15.3 g, the A/G ([…], time 7 day) was 1.2 and the ALP ([…], time 7 day) was 1407 IU/L. The ALT ([…], time 7 day) was 45 IU/L, the AST ([…], time 7 day) was 67.8 IU/L and the BUN ([…], time 7 day) was 18.4 mg/dL. For the same compound, the CRE ([…], time 7 day) was 0.1 mg/dL, the Ca ([…], time 7 day) was 10.8 mg/dL and the Cl ([…], time 7 day) was 105.4 meq/L. It also gave a DBIL ([…], time 7 day) of 0 mg/dL, a GLC ([…], time 7 day) of 177.2 mg/dL and an IP ([…], time 7 day) of 7.9 mg/dL. It also gave a K ([…], time 7 day) of 4.6 meq/L, an LDH ([…], time 7 day) of 181.4 IU/L and a Na ([…], time 7 day) of 140 meq/L. It also gave a PL ([…], time 7 day) of 132.6 mg/dL, an RALB ([…], time 7 day) of 2.9 g/dL and a TBIL ([…], time 7 day) of 0.006 mg/dL. It also gave a TC ([…], time 7 day) of 67.8 mg/dL, a TG ([…], time 7 day) of 90.8 mg/dL and a TP ([…], time 7 day) of 5.2 g/dL. For the same compound, the gamma-GTP ([…], time 7 day) was 1.8 IU/L, the A/G ([…], time 14 day) was 1.3 and the ALP ([…], time 14 day) was 1175.6 IU/L. For the same compound, the ALT ([…], time 14 day) was 41.6 IU/L, the AST ([…], time 14 day) was 70.4 IU/L and the BUN ([…], time 14 day) was 23 mg/dL. For the same compound, the CRE ([…], time 14 day) was 0.2 mg/dL, the Ca ([…], time 14 day) was 10.5 mg/dL and the Cl ([…], time 14 day) was 105 meq/L. The DBIL ([…], time 14 day) was 0 mg/dL, the GLC ([…], time 14 day) was 182.6 mg/dL and the IP ([…], time 14 day) was 7 mg/dL. It also gave a K ([…], time 14 day) of 4.4 meq/L, an LDH ([…], time 14 day) of 182.6 IU/L and a Na ([…], time 14 day) of 140.2 meq/L. For the same compound, the PL ([…], time 14 day) was 125.4 mg/dL, the RALB ([…], time 14 day) was 3.1 g/dL and the TBIL ([…], time 14 day) was 0.01 mg/dL. It also gave a TC ([…], time 14 day) of 60 mg/dL, a TG ([…], time 14 day) of 120.2 mg/dL and a TP ([…], time 14 day) of 5.6 g/dL. The gamma-GTP ([…], time 14 day) was 2 IU/L, the A/G ([…], time 28 day) was 1.2 and the ALP ([…], time 28 day) was 1066 IU/L. For the same compound, the ALT ([…], time 28 day) was 49.2 IU/L, the AST ([…], time 28 day) was 71.4 IU/L and the BUN ([…], time 28 day) was 17 mg/dL. For the same compound, the CRE ([…], time 28 day) was 0.2 mg/dL, the Ca ([…], time 28 day) was 10.9 mg/dL and the Cl ([…], time 28 day) was 104.2 meq/L. It also gave a DBIL ([…], time 28 day) of 0 mg/dL, a GLC ([…], time 28 day) of 180 mg/dL and an IP ([…], time 28 day) of 7.5 mg/dL. For the same compound, the K ([…], time 28 day) was 4 meq/L, the LDH ([…], time 28 day) was 154.6 IU/L and the Na ([…], time 28 day) was 142.6 meq/L. For the same compound, the PL ([…], time 28 day) was 135 mg/dL, the RALB ([…], time 28 day) was 3.2 g/dL and the TBIL ([…], time 28 day) was 0.03 mg/dL. It also gave a TC ([…], time 28 day) of 63 mg/dL, a TG ([…], time 28 day) of 106.2 mg/dL and a TP ([…], time 28 day) of 5.8 g/dL. The gamma-GTP ([…], time 28 day) was 2 IU/L.
